Earlier results, collected in patent publication US20240000829A1, “COPOLYMER CONTAINING POLY(ETHYLENE GLYCOL) AND POLY(L-AMINO ACID DERIVATIVE), MICROPARTICLES THEREOF AND USE THEREOF IN PHARMACEUTICAL COMPOSITION” (University of Tsukuba, priority 2020, published 2024).

System: patients with hepatic disorders such as hepatic cirrhosis
Details: reported; Non-Patent Document 1

For `NCCC[C@H](N)C(=O)O` [L-ornithine], which “ammonia level / concentration” value is on record?
Its value is “reduced ammonia levels”.
